# Literature values in US8853275B2, “Concurrent therapy regime/regimen for the treatment of acne related diseases” (Galderma Research & Development, priority 2008, dated 2014).
# Conditions: when combined with BPO; unlike tretinoin
smiles,measurement,value
"COc1ccc(-c2ccc3cc(C(=O)O)ccc3c2)cc1C12CC3CC(CC(C3)C1)C2 [Adapalene, 6-[3-(1-adamantyl)-4-methoxyphenyl]-2-naphtoïc acid]",Stability in the presence of light,stable in the presence of light
